#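 In this assay, cells in 96-well plates receive the compound at five concentrations for 48 hours. Endpoints are linearly interpolated between the surrounding concentrations. Abbreviation: GI50, concentration required for 50% inhibition of growth.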 Activity calls are given as the source filed them. Rule as the data show it: active = GI50 up to about 1.1 µM and inactive = higher.
# Key:
# Assay in all cases: inhibition of tumour cell growth, NCI panel, 48 h
# BT-549 = test system: BT-549
# CCRF-CEM = test system: CCRF-CEM
# DU-145 = test system: DU-145
# EKVX = test system: EKVX
# HCT-15 = test system: HCT-15
# IGROV-1 = test system: IGROV-1
# KM12 = test system: KM12
# MDA-MB-435 = test system: MDA-MB-435
# NCI-H226 = test system: NCI-H226
# NCI-H522 = test system: NCI-H522
# NCI/ADR-RES = test system: NCI/ADR-RES
# OVCAR-5 = test system: OVCAR-5
# RXF 393 = test system: RXF 393
# SF-268 = test system: SF-268
# SK-MEL-2 = test system: SK-MEL-2
# SNB-19 = test system: SNB-19
# SR = test system: SR
# TK-10 = test system: TK-10
# UACC-257 = test system: UACC-257
# UO-31 = test system: UO-31
Compound,GI50 (BT-549),GI50 (CCRF-CEM),GI50 (DU-145),GI50 (EKVX),GI50 (HCT-15),GI50 (IGROV-1),GI50 (KM12),GI50 (MDA-MB-435),GI50 (NCI-H226),GI50 (NCI-H522),GI50 (NCI/ADR-RES),GI50 (OVCAR-5),GI50 (RXF 393),GI50 (SF-268),GI50 (SK-MEL-2),GI50 (SNB-19),GI50 (SR),GI50 (TK-10),GI50 (UACC-257),GI50 (UO-31)
Oc1ccc(Cn2c(-c3ccc(O)cc3)nc3ccccc32)cc1,> 100 µM (inactive),> 100 µM (inactive),> 100 µM (inactive),> 100 µM (inactive),> 100 µM,> 100 µM (inactive),> 100 µM (inactive),> 100 µM (inactive),> 100 µM (inactive),> 100 µM (inactive),> 100 µM (inactive),> 100 µM (inactive),> 100 µM (inactive),> 100 µM (inactive),> 100 µM (inactive),> 100 µM (inactive),> 31.6 µM (inactive),> 100 µM (inactive),> 100 µM (inactive),> 100 µM (inactive)
CCn1c(SCC(=O)N/N=C2\SCC(=O)N2c2ccc(C)cc2)nc2ccccc2c1=O,> 10 µM (inactive),34 µM (inactive),28.2 µM (inactive),22.4 µM (inactive),32.1 µM,21.6 µM (inactive),19.4 µM (inactive),21.2 µM (inactive),23.8 µM (inactive),22.4 µM (inactive),19.8 µM (inactive),20.5 µM (inactive),17.4 µM (inactive),20.3 µM (inactive),28.9 µM (inactive),20.8 µM (inactive),17.4 µM (inactive),15 µM (inactive),15.7 µM (inactive),15.1 µM (inactive)

# Source: ChEMBL document CHEMBL1201862, “PubChem BioAssay data set” (2004)
